Consider one molecule from PubChem BioAssay AID463142 (The Scripps Research Institute Molecular Screening Center, 2010).

The structures appear in SMILES notation.

In the test the target is Glutathione S-transferase omega-1 (Homo sapiens) (UniProt P78417). Briefly: GSTO1 inhibitor potency, recombinant enzyme, late-stage follow-up, biochemical, SE-Rh probe, in-gel fluorescence, powder samples, set 2 (AID 463142). As to conditions: recombinant GSTO1, SE-Rh probe labeling.
Sequence of Glutathione S-transferase omega-1 (Homo sapiens) (P78417 whole entry, looked up): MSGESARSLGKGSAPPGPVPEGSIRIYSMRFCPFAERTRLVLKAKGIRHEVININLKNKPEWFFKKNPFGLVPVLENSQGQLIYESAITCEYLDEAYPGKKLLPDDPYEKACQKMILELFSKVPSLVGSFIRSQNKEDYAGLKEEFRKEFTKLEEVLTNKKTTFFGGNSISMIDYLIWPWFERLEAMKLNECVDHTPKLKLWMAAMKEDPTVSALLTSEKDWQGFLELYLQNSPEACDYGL

A word on the IC50: it is the concentration that inhibits the measured activity by half. Regarding `O=C(CCl)N(CCCNC(=O)C(F)(F)F)c1ccc(Cl)cc1`, the IC50 is 40 nM.
